Source: patent US20100137139A1, “HERBICIDE/SAFENER COMBINATION” (BAYER CROPSCIENCE AG, priority 2008, published 2010)
“And” between values parts separate entries of the source, which are not always exact repeats. Equal entries are not always repeated.

Assays:
Type in all cases: in vivo
Settings in all cases: no safener
Wheat (Triso) [1] = test: Pre-emergence herbicidal effect and safener effect on wheat, visual scoring in greenhouse
Description: (§1) Seeds or rhizome pieces of mono- and dicotyledonous weed plants and crop plants are planted in peat pots in sandy loam and covered with earth. The herbicide/safener active ingredient combinations according to the invention, formulated as water-soluble powders or suspensions, and, in parallel experiments, the correspondingly formulated individual active ingredients were then applied to the surface of the covering earth at an application rate of 600 to 800 I of water/ha (converted) in a variety of dosages.
(§2) After the treatment, the pots were placed in the greenhouse and kept under good growth conditions for the weeds and the crop plants. Visual scoring of the plant damage or emergence damage was carried out after the test plants had emerged after a test period of 2 to 4 weeks, in comparison with untreated controls.

Corn (Aventura) [2] = test: Pre-emergence herbicidal effect and safener effect on corn, visual scoring in greenhouse
Description: as §1, §2

Wheat (Triso) [3] = test: Post-emergence herbicidal effect and safener effect on wheat, visual scoring in greenhouse
Description: (§3) Seeds or rhizome pieces of mono- and dicotyledonous harmful plants and of crop plants are planted in peat pots in sandy loam, covered with earth and grown in a greenhouse under good growth conditions. Alternatively to this, harmful plants occurring in the paddy rice cultivation are cultivated in pots in which water comes to 2 cm above the soil surface. 10 to 20 days after sowing, the test plants are treated in the one-to three-leaf stage. The herbicide/safener active ingredient combinations according to the invention, formulated as water-soluble powders or suspensions, and, in parallel experiments, the correspondingly formulated individual active ingredients are sprayed onto the green plant parts in various dosages using an application rate of 300 I of water/ha (converted) and, after the test plants have remained in the greenhouse under optimum growth conditions for 2-3 weeks, the effect of the preparations is scored visually in comparison with untreated controls. In the case of rice or in the case of harmful plants which occur in the rice cultivation, the active ingredients are also placed directly into the irrigation water (application analogous to the so-called granules application) or sprayed onto plants and into the irrigation water.

Rice (Ballila) = test: Post-emergence herbicidal effect and safener effect on rice, visual scoring in greenhouse
Description: as §3

Corn (Aventura) [4] = test: Post-emergence herbicidal effect and safener effect on corn, visual scoring in greenhouse
Description: as §3

SMILES | % effect (without safener) (Wheat (Triso) [1]; herbicide 25 g a.i./ha) [%] | % effect (without safener) (Corn (Aventura) [2]; herbicide 50 g a.i./ha) | % effect (without safener) (Wheat (Triso) [3]; herbicide 25 g a.i./ha) [%] | % effect (without safener) (Corn (Aventura) [4]; herbicide 25 g a.i./ha) [%] | other results
Nc1nc(C2CC2)nc(C(=O)O)c1Cl [Compound I-1, 6-amino-5-chloro-2-cyclopropyl-4-pyrimidinecarboxylic acid] | 30 |  |  |  | % effect (without safener) (Corn (Aventura) [2]; herbicide 100 g a.i./ha): 50%; % effect (without safener) (Wheat (Triso) [3]; herbicide 50 g a.i./ha): 20%
CCOC(=O)c1nc(C2CC2)nc(N)c1Cl [Compound I-3, ethyl 6-amino-5-chloro-2-cyclopropyl-4-pyrimidinecarboxylate] |  | 20% and 25% |  |  | % effect (without safener) (Rice (Ballila); herbicide 25 g a.i./ha): 60%; % effect (without safener) (Corn (Aventura) [4]; herbicide 50 g a.i./ha): 60%
Nc1nc(-c2ccc(Cl)cc2)nc(C(=O)O)c1Cl [Compound I-109, 6-amino-5-chloro-2-(4-chlorophenyl)-4-pyrimidinecarboxylic acid] | 20 |  | 30 | 60 | % effect (without safener) (Corn (Aventura) [2]; herbicide 25 g a.i./ha): 20%
Nc1nc(C2CC2)nc(C(=O)[O-])c1Cl.[K+] [Compound I-163, potassium salt of 6-amino-5-chloro-2-cyclopropyl-4-pyrimidinecarboxylic acid] |  | 50% | 10 | 20 | % effect (without safener) (Wheat (Triso) [1]; herbicide 50 g a.i./ha): 20%
Nc1nc(C2CC2)nc(C(=O)[O-])c1Cl.[Na+] [Compound I-164, 6-amino-5-chloro-2-cyclopropyl-4-pyrimidinecarboxylic acid sodium salt] | 10 |  | 20 |  | % effect (without safener) (Rice (Ballila); herbicide 25 g a.i./ha, sodium salt): 10% and 20%; % effect (without safener) (Rice (Ballila); herbicide 50 g a.i./ha): 20%
